US20240124444A1 (Celgene Corporation, priority 2020, published 2024)
Read-outs that look alike come from different tables or passages of the source.

System: C. parvum strain UGA1
Assay: C. parvum growth inhibition assay (Nluc luminescence in HCT-8 cells)
Format: cell-based, Cryptosporidium parvum
Details: Cryptosporidium parvum; for inhibition at 1 µM / inhibition at 10 µM: HCT-8; for inhibition at 1 µM: read-out: % inh @ 1 uM C. parvum; for inhibition at 10 µM: read-out: % inh @ 10 uM C. parvum; for EC50: HCT-8, 48 h, C. parvum growth inhibition in HCT-8 cells, 48 hours, 6 concentrations 10-0.04 μM
[1] = single point inhibition at 1 uM
[2] = single point inhibition at 10 uM
[3] = single point inhibition @ 10 uM

Row | SMILES | inhibition at 1 µM [1] [%] | inhibition at 10 µM [2] [%] | inhibition at 1 µM (single point inhibition @ 1 uM) [%] | inhibition at 10 µM [3] [%] | EC50 [µM]
1 | O=C(Nc1cc2[nH]c(-c3cccnc3)cc2cn1)C1CCCC1 [Example 276, N-(2-(pyridin-3-yl)-1H-pyrrolo[3,2-c]pyridin-6-yl)cyclopentanecarboxamide] | 0 to 33 | 0 to 33 | – | – | –
2 | Cc1nc(-c2cc3cnc(NC(=O)C4CC4)cc3[nH]2)co1 [Example 335, N-(2-(2-methyloxazol-4-yl)-1H-pyrrolo[3,2-c]pyridin-6-yl)cyclopropanecarboxamide] | 0 to 33 | 0 to 33 | – | – | –
3 | Cc1nccc(-c2cc3cnc(NC(=O)c4cnn(C)c4)cc3[nH]2)n1 [Example 185, 1-methyl-N-(2-(2-methylpyrimidin-4-yl)-1H-pyrrolo[3,2-c]pyridin-6-yl)-1H-pyrazole-4-carboxamide] | – | – | 0 to 33 | 67 to 100 | –
4 | Cn1cc(C(=O)Nc2cc3[nH]c(-c4cncn4C)cc3cn2)cn1 [Example 90, 1-methyl-N-(2-(1-methyl-1H-imidazol-5-yl)-1H-pyrrolo[3,2-c]pyridin-6-yl)-1H-pyrazole-4-carboxamide] | – | – | 33 to 66 | 0 to 33 | > 1
5 | c1cc(-c2cc3cnc(NC4CCOCC4)cc3[nH]2)nc(N2CCCC2)n1 [Example 372, 2-(2-(pyrrolidin-1-yl)pyrimidin-4-yl)-N-(tetrahydro-2H-pyran-4-yl)-1H-pyrrolo[3,2-c]pyridin-6-amine] | – | – | – | – | < 0.5
6 | CC(C)n1cc(C(=O)Nc2cc3[nH]c(-c4ccnc(N(C)CC(F)(F)F)n4)cc3cn2)cn1 [Example 232, 1-isopropyl-N-(2-(2-(methyl(2,2,2-trifluoroethyl)amino)pyrimidin-4-yl)-1H-pyrrolo[3,2-c]pyridin-6-yl)-1H-pyrazole-4-carboxamide] | 0 to 33 | 33 to 66 | – | – | –
7 | CCc1nccc(-c2cc3cnc(NC4CCOCC4)cc3n2C)n1 [Example 387, 2-(2-ethylpyrimidin-4-yl)-1-methyl-N-(tetrahydro-2H-pyran-4-yl)-1H-pyrrolo[3,2-c]pyridin-6-amine] | – | – | – | – | > 1
8 | O=C(Nc1cc2[nH]c(-c3ccnc(OCCF)n3)cc2cn1)c1cnn(C2CCOCC2)c1 [Example 225, N-(2-(2-(2-fluoroethoxy)pyrimidin-4-yl)-1H-pyrrolo[3,2-c]pyridin-6-yl)-1-(tetrahydro-2H-pyran-4-yl)-1H-pyrazole-4-carboxamide] | 0 to 33 | 33 to 66 | – | – | –
9 | CN(C(=O)c1cnn(C)c1)c1cc2[nH]c(-c3ccnc(NCC(F)(F)F)n3)cc2cn1 [Example 257, N,1-dimethyl-N-(2-(2-(2,2,2-trifluoroethylamino)pyrimidin-4-yl)-1H-pyrrolo[3,2-c]pyridin-6-yl)-1H-pyrazole-4-carboxamide] | 0 to 33 | 0 to 33 | – | – | –
10 | Cc1nccc(-c2cc3cnc(NC(=O)C4CCC4)cc3[nH]2)n1 [Example 99, N-(2-(2-methylpyrimidin-4-yl)-1H-pyrrolo[3,2-c]pyridin-6-yl)cyclobutanecarboxamide] | – | – | – | – | > 1
11 | CC(C)(O)c1cc(-c2cc3cnc(Nc4cccc(-c5nc[nH]n5)c4)cc3[nH]2)ccn1 [Example 215, 2-(4-(6-(3-(1H-1,2,4-triazol-3-yl)phenylamino)-1H-pyrrolo[3,2-c]pyridin-2-yl)pyridin-2-yl)propan-2-ol] | 33 to 66 | 67 to 100 | – | – | –
12 | Cn1c(-c2ccnc(C(F)(F)F)n2)cc2cnc(NC3CCOCC3)cc21 [Example 396, 1-methyl-N-(tetrahydro-2H-pyran-4-yl)-2-(2-(trifluoromethyl)pyrimidin-4-yl)-1H-pyrrolo[3,2-c]pyridin-6-amine] | – | – | – | – | > 1
13 | Cc1cc(-c2cc3cnc(NC(=O)C4CC4)cc3n2CCN)ncn1 [Example 75, N-(1-(2-aminoethyl)-2-(6-methylpyrimidin-4-yl)-1H-pyrrolo[3,2-c]pyridin-6-yl)cyclopropanecarboxamide] | – | – | – | – | > 1
14 | COc1cccc(Nc2cc3[nH]c(-c4cncn4C)cc3cn2)c1 [Example 204, N-(3-methoxyphenyl)-2-(1-methyl-1H-imidazol-5-yl)-1H-pyrrolo[3,2-c]pyridin-6-amine] | 33 to 66 | 67 to 100 | – | – | –
15 | Cc1cc(-c2cc3cnc(NC(=O)c4ncoc4C)cc3[nH]2)ccn1 [Example 290, 5-methyl-N-(2-(2-methylpyridin-4-yl)-1H-pyrrolo[3,2-c]pyridin-6-yl)oxazole-4-carboxamide] | 0 to 33 | 0 to 33 | – | – | –
16 | Cn1cc(C(=O)Nc2cc3[nH]c(-c4ccnc(C(F)(F)F)c4)cc3cn2)cn1 [Example 284, 1-methyl-N-(2-(2-(trifluoromethyl)pyridin-4-yl)-1H-pyrrolo[3,2-c]pyridin-6-yl)-1H-pyrazole-4-carboxamide] | 0 to 33 | 0 to 33 | – | – | –
17 | Cn1cc(C(=O)Nc2cc3[nH]c(-c4cnn(C)c4)cc3cn2)cn1 [Example 331, 1-methyl-N-(2-(1-methyl-1H-pyrazol-4-yl)-1H-pyrrolo[3,2-c]pyridin-6-yl)-1H-pyrazole-4-carboxamide] | 0 to 33 | 0 to 33 | – | – | –

Row | SMILES | inhibition at 1 µM [1] [%] | inhibition at 10 µM [2] [%] | inhibition at 1 µM (single point inhibition @ 1 uM) [%] | inhibition at 10 µM [3] [%] | EC50 [µM]
18 | Cn1cnc(-c2cc3cnc(NC(=O)C4CC4)cc3[nH]2)n1 [Example 65, N-(2-(1-methyl-1H-1,2,4-triazol-3-yl)-1H-pyrrolo[3,2-c]pyridin-6-yl)cyclopropanecarboxamide] | – | – | – | – | > 1
19 | Cc1cc(-c2cc3cnc(Nc4cccc(-c5nc[nH]n5)c4)cc3[nH]2)ccn1 [Example 66, N-(3-(1H-1,2,4-triazol-3-yl)phenyl)-2-(2-methylpyridin-4-yl)-1H-pyrrolo[3,2-c]pyridin-6-amine] | – | – | 67 to 100 | 67 to 100 | > 1
20 | CCn1cc(C(=O)Nc2cc3[nH]c(-c4ccnc(OCC(F)(F)F)n4)cc3cn2)c(C)n1 [Example 242, 1-ethyl-3-methyl-N-(2-(2-(2,2,2-trifluoroethoxy)pyrimidin-4-yl)-1H-pyrrolo[3,2-c]pyridin-6-yl)-1H-pyrazole-4-carboxamide] | 0 to 33 | 0 to 33 | – | – | –
21 | COc1nccc(-c2cc3cnc(NC(=O)c4cnn(CC5CCCO5)c4)cc3[nH]2)n1 (stereo in doubt) [Example 231, (R)-N-(2-(2-methoxypyrimidin-4-yl)-1H-pyrrolo[3,2-c]pyridin-6-yl)-1-((tetrahydrofuran-2-yl)methyl)-1H-pyrazole-4-carboxamide] | 33 to 66 | 33 to 66 | – | – | –
22 | FC(F)(F)COc1nccc(-c2cc3cnc(NC4CCOCC4)cc3[nH]2)n1 [Example 380, N-(tetrahydro-2H-pyran-4-yl)-2-(2-(2,2,2-trifluoroethoxy)pyrimidin-4-yl)-1H-pyrrolo[3,2-c]pyridin-6-amine] | – | – | – | – | > 1
23 | Cn1cc(C(=O)Nc2cc3[nH]c(-c4cnco4)cc3cn2)cn1 [Example 64, 1-methyl-N-(2-(oxazol-5-yl)-1H-pyrrolo[3,2-c]pyridin-6-yl)-1H-pyrazole-4-carboxamide] | – | – | 0 to 33 | 33 to 66 | > 1
24 | CCOc1nccc(-c2cc3cnc(NC(=O)C4C5CCCCC54)cc3[nH]2)n1 (stereo not drawn) [Example 158, N-(2-(2-ethoxypyrimidin-4-yl)-1H-pyrrolo[3,2-c]pyridin-6-yl)bicyclo[4.1.0]heptane-7-carboxamide] | – | – | 0 to 33 | 67 to 100 | –
25 | Cn1cc(C(=O)Nc2cc3[nH]c(-c4ccnc(OCC5CCC5)n4)cc3cn2)cn1 [Example 313, N-(2-(2-(cyclobutylmethoxy)pyrimidin-4-yl)-1H-pyrrolo[3,2-c]pyridin-6-yl)-1-methyl-1H-pyrazole-4-carboxamide] | 0 to 33 | 0 to 33 | – | – | –
26 | COCCn1cc(Nc2cc3[nH]c(-c4ccncc4)cc3cn2)cn1 [Example 192, N-(1-(2-methoxyethyl)-1H-pyrazol-4-yl)-2-(pyridin-4-yl)-1H-pyrrolo[3,2-c]pyridin-6-amine] | – | – | 33 to 66 | 67 to 100 | –
27 | CCOc1nccc(-c2cc3cnc(NC(=O)c4cnn([C@H]5C[C@H](O)C5)c4)cc3[nH]2)n1 [Example 270, N-(2-(2-ethoxypyrimidin-4-yl)-1H-pyrrolo[3,2-c]pyridin-6-yl)-1-((1r,3r)-3-hydroxycyclobutyl)-1H-pyrazole-4-carboxamide] | 0 to 33 | 0 to 33 | – | – | –
28 | COc1ccc(Nc2cc3c(cn2)cc(-c2cnn(C)c2)n3C)c(C)c1 [Example 258, N-(4-methoxy-2-methylphenyl)-1-methyl-2-(1-methyl-1H-pyrazol-4-yl)-1H-pyrrolo[3,2-c]pyridin-6-amine] | 0 to 33 | 0 to 33 | – | – | –
29 | O=C(Nc1cc2c(cn1)cc(C(F)(F)F)n2CCO)C1CC1 [Example 116, N-(1-(2-hydroxyethyl)-2-(trifluoromethyl)-1H-pyrrolo[3,2-c]pyridin-6-yl)cyclopropanecarobxamide] | – | – | – | – | > 1
30 | Cn1cc(-c2cc3cnc(NC4CCOCC4)cc3n2C)cn1 [Example 223, 1-methyl-2-(1-methyl-1H-pyrazol-4-yl)-N-(tetrahydro-2H-pyran-4-yl)-1H-pyrrolo[3,2-c]pyridin-5-amine] | 0 to 33 | 33 to 66 | – | – | –
31 | CN1CCC(c2cc3cnc(NC(=O)C4CC4)cc3[nH]2)CC1 [Example 255, N-(2-(1-methylpiperidin-4-yl)-1H-pyrrolo[3,2-c]pyridin-6-yl)cyclopropanecarboxamide] | 0 to 33 | 0 to 33 | – | – | –
32 | Cc1ccnc(-c2cc3cnc(NC(=O)C4CC4)cc3n2C)c1 [Example 73, N-(1-methyl-2-(4-methylpyridin-2-yl)-1H-pyrrolo[3,2-c]pyridin-6-yl)cyclopropanecarboxamide] | – | – | – | – | > 1
33 | Cn1cc(C(=O)Nc2cc3[nH]c(-c4cccnc4)cc3cn2)cn1 [Example 332, 1-methyl-N-(2-(pyridin-3-yl)-1H-pyrrolo[3,2-c]pyridin-6-yl)-1H-pyrazole-4-carboxamide] | 0 to 33 | 0 to 33 | – | – | –
